From patent publication US20260216170A1, “TETRAHYDROISOQUINOLINE HETEROBIFUNCTIONAL BCL-XL DEGRADERS” (Treeline Biosciences, Inc., priority 2023, published 2026)

Molecular target: T1, Human BCL-XL protein (N-terminal HiBiT tagged BCL-XL expressed in HT1080 cells) (Homo sapiens, UniProt Q07817)
T1 construct: expressed in transfected cells; host or cells: HT-1080 (ATCC CCL-121), stably transduced with lentivirus pLV-UBC-N-HiBiT-BCL-XL-PGK-puro and selected with puromycin
Experiment: HiBiT Based Degradation Assay
Format: cell-based
Conditions: 24 hours incubation; for DC50: BCL-XL degradation, HT1080 cells expressing N-HiBiT-BCL-XL, normalized with DMSO control, geometric mean for multiple data points, read-out: EC50 (24 h); for Ymin (24 h): bottom of BCL-XL degradation curve (remaining HiBiT-BCL-XL signal vs DMSO control), HT1080 cells
Summary of the method: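 BCL-XL degradation was read as Nano-Glo HiBiT lytic luminescence relative to DMSO after a 24 h compound treatment of HT1080 cells carrying stably integrated N-HiBiT-BCL-XL. EC50 values come from four-parameter logistic curves, with the hook-curve minimum fixed as bottom, and are geometric means where tested repeatedly.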

T1 sequence (Q07817 whole entry): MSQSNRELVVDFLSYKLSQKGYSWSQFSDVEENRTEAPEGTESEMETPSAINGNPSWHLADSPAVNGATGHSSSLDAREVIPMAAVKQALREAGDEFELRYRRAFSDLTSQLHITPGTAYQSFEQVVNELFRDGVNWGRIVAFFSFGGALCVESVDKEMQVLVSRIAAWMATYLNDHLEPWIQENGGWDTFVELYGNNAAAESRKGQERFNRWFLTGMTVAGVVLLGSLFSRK

SMILES | DC50 [nM] | Ymin (24 h)
COc1c(NC(=O)CN2CCC3(CC2)CC(Oc2cccc(-c4ccc(N5CCc6ccnc(C(=O)Nc7nc8ccccc8s7)c6C5)nc4C(=O)O)c2C)C3)ccc2c(C3CCC(=O)NC3=O)nn(C)c12 (centres unmarked) [Compound 184, 6-[8-(1,3-benzothiazol-2-ylcarbamoyl)-3,4-dihydro-1H-2,7-naphthyridin-2-yl]-3-[3-[[7-[2-[[3-(2,6-dioxo-3-piperidyl)-7-methoxy-1-methyl-indazol-6-yl]amino]-2-oxo-ethyl]-7-azaspiro[3.5]nonan-2-yl]oxy]-2-methyl-phenyl]pyridine-2-carboxylic acid] | < 10 | B (30% ≤ Ymin < 50%)
Cc1c(OCC2CC3(CCN(CC(=O)Nc4cc5c(cc4C(F)(F)F)c(C4CCC(=O)NC4=O)nn5C)CC3)C2)cccc1-c1ccc(N2CCc3cccc(C(=O)Nc4nc5ccccc5s4)c3C2)nc1C(=O)O (centres unmarked) [Compound 139] | 1000 to 10000 | C (50% ≤ Ymin < 70%)
COc1c(NC(=O)CN2CCC3(CC2)CC(COc2cccc(-c4ccc(N5CCc6cccc(C(=O)Nc7nc8ccccc8s7)c6C5)nc4C(=O)O)c2C(F)(F)F)C3)ccc2c(C3CCC(=O)NC3=O)nn(C)c12 (centres unmarked) [Compound 143, 6-(8-(benzo[d]thiazol-2-ylcarbamoyl)-3,4-dihydroisoquinolin-2(1H)-yl)-3-(3-((7-(2-((3-(2,6-dioxopiperidin-3-yl)-7-methoxy-1-methyl-1H-indazol-6-yl)amino)-2-oxoethyl)-7-azaspiro[3.5]nonan-2-yl)methoxy)-2-(trifluoromethyl)phenyl)picolinic acid] | 10 to 100 | B (30% ≤ Ymin < 50%)
Cc1c(OCC2CC3(CCN(CC(=O)Nc4cc5c(cc4F)c(C4CCC(=O)NC4=O)nn5C)CC3)C2)cccc1-c1ccc(N2CCc3cccc(C(=O)Nc4nc5ccccc5s4)c3C2)nc1C(=O)O (centres unmarked) [Compound 121] | 10 to 100 | B (30% ≤ Ymin < 50%)
Cc1cc(OCC2CC3(CCN(CC(=O)Nc4ccc5c(C6CCC(=O)NC6=O)nn(C)c5c4)CC3)C2)ccc1-c1ccc(N2CCc3ccnc(C(=O)Nc4nc5ccccc5s4)c3C2)nc1C(=O)O (centres unmarked) [Compound 135, 6-[8-(1,3-benzothiazol-2-ylcarbamoyl)-3,4-dihydro-1H-2,7-naphthyridin-2-yl]-3-[4-[[7-[2-[[3-(2,6-dioxo-3-piperidyl)-1-methyl-indazol-6-yl]amino]-2-oxo-ethyl]-7-azaspiro[3.5]nonan-2-yl]methoxy]-2-methyl-phenyl]pyridine-2-carboxylic acid] | < 10 | A (Ymin < 30%)
COc1c(NC(=O)CN2CCC(CCCOc3ccc(-c4ccc(N5CCc6cccc(C(=O)Nc7nc8ccccc8s7)c6C5)nc4C(=O)O)c(C(F)(F)F)c3)CC2)ccc2c(C3CCC(=O)NC3=O)nn(C)c12 (centres unmarked) [Compound 142] | 10 to 100 | A (Ymin < 30%)
COc1cc2c(C3CCC(=O)NC3=O)nn(C)c2cc1NC(=O)CN1CCC(CCCOc2ccc(-c3ccc(N4CCc5cccc(C(=O)Nc6nc7ccccc7s6)c5C4)nc3C(=O)O)c(C)c2)CC1 (centres unmarked) [Compound 103, 6-[8-(1,3-benzothiazol-2-ylcarbamoyl)-3,4-dihydro-1H-isoquinolin-2-yl]-3-[4-[3-[1-[2-[[3-(2,6-dioxo-3-piperidyl)-5-methoxy-1-methyl-indazol-6-yl]amino]-2-oxo-ethyl]-4-piperidyl]propoxy]-2-methyl-phenyl]pyridine-2-carboxylic acid] | 100 to 1000 | B (30% ≤ Ymin < 50%)
Cc1cc(OC2CC3(CCN(CC(=O)Nc4ccc5c(C6CCC(=O)NC6=O)nn(C)c5c4)CC3)C2)ccc1-c1ccc(N2CCc3cccc(C(=O)Nc4nc5ccccc5s4)c3C2)nc1C(=O)O (centres unmarked) [Compound 112, 6-[8-(1,3-benzothiazol-2-ylcarbamoyl)-3,4-dihydro-1H-isoquinolin-2-yl]-3-[4-[[7-[2-[[3-(2,6-dioxo-3-piperidyl)-1-methyl-indazol-6-yl]amino]-2-oxo-ethyl]-7-azaspiro[3.5]nonan-2-yl]oxy]-2-methyl-phenyl]pyridine-2-carboxylic acid] | < 10 | A (Ymin < 30%)
Cn1nc(C2CCC(=O)NC2=O)c2ccc(NC(=O)CN3CCC4(CC3)CC(Oc3ccc(-c5ccc(N6CCc7ccnc(C(=O)Nc8nc9ccccc9s8)c7C6)nc5C(=O)O)c(C(F)(F)F)c3)C4)cc21 (centres unmarked) [Compound 168, 6-[8-(1,3-benzothiazol-2-ylcarbamoyl)-3,4-dihydro-1H-2,7-naphthyridin-2-yl]-3-[4-[[7-[2-[[3-(2,6-dioxo-3-piperidyl)-1-methyl-indazol-6-yl]amino]-2-oxo-ethyl]-7-azaspiro[3.5]nonan-2-yl]oxy]-2-(trifluoromethyl)phenyl]pyridine-2-carboxylic acid] | < 10 | B (30% ≤ Ymin < 50%)
COc1cc2c(C3CCC(=O)NC3=O)nn(C)c2cc1NC(=O)CN1CCC2(CC1)CC(COc1cccc(-c3ccc(N4CCc5cccc(C(=O)Nc6nc7ccccc7s6)c5C4)nc3C(=O)O)c1C)C2 (centres unmarked) [Compound 126] | 100 to 1000 | C (50% ≤ Ymin < 70%)
Cc1cc(OC2CC3(CCN(CC(=O)Nc4ccc5c(C6CCC(=O)NC6=O)nn(C)c5c4)CC3)C2)ccc1-c1ccc(N2CCc3ccnc(C(=O)Nc4nc5ccccc5s4)c3C2)nc1C(=O)O (centres unmarked) [Compound 167, 6-[8-(1,3-benzothiazol-2-ylcarbamoyl)-3,4-dihydro-1H-2,7-naphthyridin-2-yl]-3-[4-[[7-[2-[[3-(2,6-dioxo-3-piperidyl)-1-methyl-indazol-6-yl]amino]-2-oxo-ethyl]-7-azaspiro[3.5]nonan-2-yl]oxy]-2-methyl-phenyl]pyridine-2-carboxylic acid] | < 10 | A (Ymin < 30%)
Cc1c(OCC2CC3(CCN(CC(=O)Nc4ccc5c(C6CCC(=O)NC6=O)nn(C)c5c4C)CC3)C2)cccc1-c1ccc(N2CCc3cccc(C(=O)Nc4nc5ccccc5s4)c3C2)nc1C(=O)O (centres unmarked) [Compound 117] | 10 to 100 | B (30% ≤ Ymin < 50%)
Cc1c(OCC[C@@H]2C[C@@H]3CN(CC(=O)Nc4ccc5c(C6CCC(=O)NC6=O)nn(C)c5c4)C[C@@H]3C2)cccc1-c1ccc(N2CCc3cccc(C(=O)Nc4nc5ccccc5s4)c3C2)nc1C(=O)O (some centres unmarked) [Compound 173a] | < 10 | B (30% ≤ Ymin < 50%)
Cc1cc(OC[C@H]2C[C@@H]2CC2CCN(CC(=O)Nc3ccc4c(C5CCC(=O)NC5=O)nn(C)c4c3)CC2)ccc1-c1ccc(N2CCc3cccc(C(=O)Nc4nc5ccccc5s4)c3C2)nc1C(=O)O (single isomer, unassigned) [Compound 1002a] | < 10 | B (30% ≤ Ymin < 50%)
Cc1cc(O[C@@H](C)CCC2CCN(CC(=O)Nc3ccc4c(C5CCC(=O)NC5=O)nn(C)c4c3)CC2)ccc1-c1ccc(N2CCc3ccnc(C(=O)Nc4nc5ccccc5s4)c3C2)nc1C(=O)O (single isomer, unassigned) [Compound 133b] | 10 to 100 | A (Ymin < 30%)
COc1c(NC(=O)CN2CCC(CCCOc3cccc(-c4ccc(N5CCc6cccc(C(=O)Nc7nc8ccccc8s7)c6C5)nc4C(=O)O)c3F)CC2)ccc2c(C3CCC(=O)NC3=O)nn(C)c12 (centres unmarked) [Compound 200] | 10 to 100 | B (30% ≤ Ymin < 50%)
Cc1cc(OC[C@@H]2C[C@@H]2CC2CCN(CC(=O)Nc3ccc4c(C5CCC(=O)NC5=O)nn(C)c4c3)CC2)ccc1-c1ccc(N2CCc3cccc(C(=O)Nc4nc5ccccc5s4)c3C2)nc1C(=O)O (single isomer, unassigned) [Compound 1002d] | < 10 | A (Ymin < 30%)
C[C@@H](COc1ccc(-c2ccc(N3CCc4cccc(C(=O)Nc5nc6ccccc6s5)c4C3)nc2C(=O)O)c(C(F)(F)F)c1)CC1CCN(CC(=O)Nc2ccc3c(C4CCC(=O)NC4=O)nn(C)c3c2)CC1 (single isomer, unassigned) [Compound 130a] | 10 to 100 | B (30% ≤ Ymin < 50%)
C[C@H]1C[C@@H](CCCOc2ccc(-c3ccc(N4CCc5cccc(C(=O)Nc6nc7ccccc7s6)c5C4)nc3C(=O)O)c(C(F)(F)F)c2)CCN1CC(=O)Nc1ccc2c(C3CCC(=O)NC3=O)nn(C)c2c1 (stereo partly drawn) [Compound 209a, 6-(8-(benzo[d]thiazol-2-ylcarbamoyl)-3,4-dihydroisoquinolin-2(1H)-yl)-3-(4-(3-((2S,4S)-1-(2-((3-(2,6-dioxopiperidin-3-yl)-1-methyl-1H-indazol-6-yl)amino)-2-oxoethyl)-2-methylpiperidin-4-yl)propoxy)-2-(trifluoromethyl)phenyl)picolinic acid] | 10 to 100 | A (Ymin < 30%)
Cc1c(OCC2CC3(CCN(CC(=O)Nc4ccc5c(C6CCC(=O)NC6=O)nn(C)c5c4C(F)(F)F)CC3)C2)cccc1-c1ccc(N2CCc3cccc(C(=O)Nc4nc5ccccc5s4)c3C2)nc1C(=O)O (centres unmarked) [Compound 137] | 10 to 100 | C (50% ≤ Ymin < 70%)
Cc1c(OC[C@H]2C[C@@H]2CC2CCN(CC(=O)Nc3ccc4c(C5CCC(=O)NC5=O)nn(C)c4c3)CC2)cccc1-c1ccc(N2CCc3cccc(C(=O)Nc4nc5ccccc5s4)c3C2)nc1C(=O)O (single isomer, unassigned) [Compound 1004a] | 10 to 100 | B (30% ≤ Ymin < 50%)
Cc1cc(OCC2CC3(CCN(CC(=O)Nc4ccc5c(C6CCC(=O)NC6=O)nn(C)c5c4C)CC3)C2)ccc1-c1ccc(N2CCc3cccc(C(=O)Nc4nc5ccccc5s4)c3C2)nc1C(=O)O (centres unmarked) [Compound 124, 6-(8-(benzo[d]thiazol-2-ylcarbamoyl)-3,4-dihydroisoquinolin-2(1H)-yl)-3-(4-((7-(2-((3-(2,6-dioxopiperidin-3-yl)-1,7-dimethyl-1H-indazol-6-yl)amino)-2-oxoethyl)-7-azaspiro[3.5]nonan-2-yl)methoxy)-2-methylphenyl)picolinic acid] | < 10 | B (30% ≤ Ymin < 50%)
